Measured values as given in ChEMBL document CHEMBL1130919, “Probing the importance of spacial and conformational domains in captopril analogs for angiotensin converting enzyme activity” (Bioorg Med Chem Lett, 1998).

Legend:
[1] = target: T1, Neprilysin (Rattus norvegicus, UniProt P07861); assay: Compound was tested for its inhibitory activity against neutral endopeptidase 24.11 enzyme at the concentration of 10 uM; Inactive
T1 sequence (P07861 whole entry): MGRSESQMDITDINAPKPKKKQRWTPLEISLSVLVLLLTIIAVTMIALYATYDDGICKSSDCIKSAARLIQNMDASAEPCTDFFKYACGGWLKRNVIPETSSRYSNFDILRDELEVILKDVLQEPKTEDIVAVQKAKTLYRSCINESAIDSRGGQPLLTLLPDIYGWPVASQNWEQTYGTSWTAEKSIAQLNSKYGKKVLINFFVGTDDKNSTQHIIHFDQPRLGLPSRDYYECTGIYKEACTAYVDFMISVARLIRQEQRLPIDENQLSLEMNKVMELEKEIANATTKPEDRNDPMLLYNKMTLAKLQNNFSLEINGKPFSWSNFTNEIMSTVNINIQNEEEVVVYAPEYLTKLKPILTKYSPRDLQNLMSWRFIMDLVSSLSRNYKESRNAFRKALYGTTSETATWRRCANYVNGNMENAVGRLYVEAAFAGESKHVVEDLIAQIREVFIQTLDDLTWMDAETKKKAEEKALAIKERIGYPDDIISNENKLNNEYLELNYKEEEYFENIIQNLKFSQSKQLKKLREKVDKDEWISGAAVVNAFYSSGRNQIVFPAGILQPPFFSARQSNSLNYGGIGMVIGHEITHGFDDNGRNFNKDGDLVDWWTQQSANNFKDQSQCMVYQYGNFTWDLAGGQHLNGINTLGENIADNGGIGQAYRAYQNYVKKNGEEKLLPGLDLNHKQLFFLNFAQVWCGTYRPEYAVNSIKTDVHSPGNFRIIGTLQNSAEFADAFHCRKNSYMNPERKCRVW

[2] = target: T2, Endothelin-converting enzyme 1 (Homo sapiens, UniProt P42892); assay: Compound was tested for its inhibitory activity against Endothelin-converting enzyme at the concentration of 1 uM; Inactive
T2 sequence (P42892 whole entry): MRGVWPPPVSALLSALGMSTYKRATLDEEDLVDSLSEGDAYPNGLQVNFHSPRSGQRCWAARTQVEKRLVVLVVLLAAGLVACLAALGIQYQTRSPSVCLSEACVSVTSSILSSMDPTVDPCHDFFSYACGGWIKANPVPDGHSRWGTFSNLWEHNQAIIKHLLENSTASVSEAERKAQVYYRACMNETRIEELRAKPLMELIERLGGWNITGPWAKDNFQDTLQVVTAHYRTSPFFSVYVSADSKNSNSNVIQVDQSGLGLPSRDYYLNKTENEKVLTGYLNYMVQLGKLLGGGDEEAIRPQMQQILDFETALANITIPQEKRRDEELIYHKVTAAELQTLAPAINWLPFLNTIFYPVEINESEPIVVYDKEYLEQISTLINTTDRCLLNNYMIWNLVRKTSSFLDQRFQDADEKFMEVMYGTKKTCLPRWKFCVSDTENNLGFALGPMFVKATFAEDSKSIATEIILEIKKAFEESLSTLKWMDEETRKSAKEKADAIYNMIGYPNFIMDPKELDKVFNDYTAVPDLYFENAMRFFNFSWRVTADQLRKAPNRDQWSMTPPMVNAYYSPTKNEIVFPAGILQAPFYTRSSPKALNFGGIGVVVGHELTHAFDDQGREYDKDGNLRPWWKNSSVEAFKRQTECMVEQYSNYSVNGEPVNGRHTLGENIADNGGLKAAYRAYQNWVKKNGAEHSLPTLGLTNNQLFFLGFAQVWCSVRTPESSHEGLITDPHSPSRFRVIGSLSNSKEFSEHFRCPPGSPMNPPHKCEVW

[3] = target: T3, Angiotensin-converting enzyme (Oryctolagus cuniculus, UniProt P12822); assay: Compound was tested for its inhibitory activity against Angiotensin I converting enzyme
T3 sequence (P12822 whole entry): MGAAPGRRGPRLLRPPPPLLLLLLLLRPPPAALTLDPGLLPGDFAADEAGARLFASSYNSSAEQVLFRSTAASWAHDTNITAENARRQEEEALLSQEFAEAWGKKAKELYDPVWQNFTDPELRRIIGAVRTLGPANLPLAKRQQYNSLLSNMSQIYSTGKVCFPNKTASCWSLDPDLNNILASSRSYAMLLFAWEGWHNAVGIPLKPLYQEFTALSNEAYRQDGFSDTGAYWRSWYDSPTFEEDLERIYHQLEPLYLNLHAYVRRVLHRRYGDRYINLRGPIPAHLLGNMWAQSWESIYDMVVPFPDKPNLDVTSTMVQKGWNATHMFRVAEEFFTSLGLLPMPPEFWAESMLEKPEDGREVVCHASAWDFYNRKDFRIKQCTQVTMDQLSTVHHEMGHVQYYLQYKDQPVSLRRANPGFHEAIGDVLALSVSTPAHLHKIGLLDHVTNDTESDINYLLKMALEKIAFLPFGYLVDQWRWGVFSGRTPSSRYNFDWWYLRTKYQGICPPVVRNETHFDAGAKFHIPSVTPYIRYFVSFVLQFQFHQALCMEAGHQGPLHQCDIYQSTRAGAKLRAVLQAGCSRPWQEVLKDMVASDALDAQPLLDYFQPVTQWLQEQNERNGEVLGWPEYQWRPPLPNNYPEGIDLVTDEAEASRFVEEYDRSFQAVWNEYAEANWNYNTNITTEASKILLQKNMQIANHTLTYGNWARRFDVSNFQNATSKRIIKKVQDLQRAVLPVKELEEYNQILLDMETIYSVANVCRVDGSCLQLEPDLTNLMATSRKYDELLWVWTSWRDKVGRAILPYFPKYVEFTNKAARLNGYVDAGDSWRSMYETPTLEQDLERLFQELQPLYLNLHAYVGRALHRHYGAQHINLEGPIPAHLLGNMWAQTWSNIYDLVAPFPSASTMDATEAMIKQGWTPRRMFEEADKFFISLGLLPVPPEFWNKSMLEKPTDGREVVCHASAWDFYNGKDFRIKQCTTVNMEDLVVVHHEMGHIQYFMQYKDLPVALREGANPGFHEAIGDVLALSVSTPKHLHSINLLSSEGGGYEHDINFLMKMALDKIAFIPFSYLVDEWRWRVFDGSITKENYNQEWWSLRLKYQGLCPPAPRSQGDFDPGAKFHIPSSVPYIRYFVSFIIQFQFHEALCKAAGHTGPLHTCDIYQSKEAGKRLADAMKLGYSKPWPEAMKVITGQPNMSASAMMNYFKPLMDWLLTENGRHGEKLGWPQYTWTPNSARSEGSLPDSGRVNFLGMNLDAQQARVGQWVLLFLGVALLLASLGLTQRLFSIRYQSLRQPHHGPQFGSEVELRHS

| SMILES | IC50 [1] | IC50 [2] | IC50 [3] [nM] |
| --- | --- | --- | --- |
| C[C@H](CS)C(=O)N1[C@@H]2C[C@@H]2CC[C@H]1C(=O)O | Not Active | Not Active | 5.3 |
| C[C@H](CS)C(=O)N1[C@@H]2C[C@@H]2C[C@H]1C(=O)O | Not Active | Not Active | 7.6 |
| C[C@H](CS)C(=O)N1[C@H](C(=O)O)C[C@@H]2C[C@@H]21 | Not Active | Not Active | 6.6 |
